In brackets after ≈: the same amount, converted by molar mass. Where two headings read alike, the source gives them in different places.
Key:
[1] = test system: Freund's Adjuvant-induced arthritis in Wistar Albino rats; assay: Freund's adjuvant-induced arthritis, paw edema; format: in vivo; details: 10 mg/kg daily oral for 30 days; edema 13 days after Freund's Adjuvant
Protocol: The Wistar Albino rats were divided into four groups with […] each group. The two treatment groups, each containing 6 animals, were orally supplemented with one of the two analogs namely glycinate of AKBA (10) or piperazine amide of AKBA (23) in 1% carbomethylcellulose (CMC) at a daily dose of 10 mg/kg for 30 days. The control group of animals received same volume of 1% CMC orally and a positive control group received 10 mg/kg daily dose of prednisolone for direct comparison. Following the 30 day treatment and one hour after the last dose all the animals were challenged with 0.1 mL of 1% solution of Freund's Adjuvant through a subcutaneous injection in the sub-plantar region of left hind paw. The paw volume was measured using a plethymograph. The difference between the paw volumes measured before and 13 days after the Freund's Adjuvant injection was taken as edema volume. The percentage inhibition was calculated by comparing the mean edema of the control group and treatment groups.

B16 = assay: MTT cell proliferation assay, B16; format: cell-based, mouse; details: Table 2; for Inhibition of cell proliferation B16 (IC50): three days
Protocol: (§1) MTT [3-(4,5-dimethylthiazol-2-yl)-2,5-diphenyltetrazolium bromide] incorporation based cell proliferation assay was performed as described previously (Reference). The cytotoxic efficacy of some analogs was evaluated in different cell lines by MTT cell proliferation assay kit (Roche Applied Sciences, Germany). The assay was carried out according to the instruction provided by the vendor. Briefly, in brief, equal numbers of cells was plated in 96-well flat-bottomed plates in 100 μl of medium and were exposed to different analogs selected from 1 to 63 at various concentrations up to 10 μg/ml for a period of three days. Vehicle control culture wells received only a maximum of 0.5% DMSO. Thereafter, 0.5 mg/ml of MTT reagent was added to each well and the microplate was incubated further for 4 h at 37° C. in presence of 5% CO2. Finally, the cells were solubilized by adding solubilizing solution and allowed to incubate at 37° C. overnight. After complete solubilization of the formazan crystals the absorbance was read at 540 nm in a microplate reader (BioRad, USA). The results (mean OD±SD) obtained from quadruplicate wells were used in calculation to determine the inhibition of cell proliferation (50% of inhibitory concentration, IC50) of the test compounds.

MDA-MB-231 = assay: MTT cell proliferation assay, MDA-MB-231; format: cell-based, human; details: for inhibition at 10 µg/mL / IC50: Homo sapiens, MDA-MB-231; for Inhibition of cell proliferation MDA-MB-231 (IC50): three days
Protocol: as §1
(§2) The cytotoxic properties of some analogs were evaluated by MTT incorporation assay. The methodology of the assay procedure was the same as mentioned in example 41.

potato 5-lipoxygenase = assay: 5-Lipoxygenase enzyme inhibitory activity; format: biochemical
Protocol: 5-Lipoxygenase enzyme inhibitory activity was measured using the method of Schewe et al. (Adv Enzymol, Vol 58, 191-272, 1986), modified by Reddanna et. al., (Methods of Enzymology, Vol 187, 268-277, 1990). The assay mixture contained 80 μM linoleic acid and sufficient amount of potato 5-lipoxygenase in 50 mM phosphate buffer (pH 6.3). The reaction was initiated by the addition of enzyme buffer mix to linoleic acid and the enzyme activity was monitored as the increase in absorbance at 234 nm. The reaction was monitored for 120 sec and the inhibitory potential of the test substances (29, 31, 33, 34, 35, 36, 39, 40, 43, 44, 46, 47, 48, 49, 50, 54, 57, 59, 62 & 63) was measured by incubating various concentrations of test substances two minutes before the addition of linoleic acid. All assays were performed three times. Percentage inhibition was calculated by comparing the slope of the curve obtained for test substances with that of the control.

A549 = assay: MTT cell proliferation assay, A549; format: cell-based, human; details: Table 2; for Inhibition of cell proliferation A549 (IC50): three days
Protocol: as §1

MCF-7 = assay: MTT cell proliferation assay, MCF-7; format: cell-based, human; details: for Inhibition of cell proliferation MCF-7 (IC50): three days
Protocol: as §1, §2

A375 = assay: MTT cell proliferation assay, A375; format: cell-based, human; details: Table 2; three days
Protocol: as §1

PC3M = assay: Cytotoxicity MTT assay, PC3M; format: cell-based, human; design: minimum inhibitory concentration (MIC) PC3M: unit not given here; details: for minimum inhibitory concentration (MIC) PC3M: MTT assay
HePG2 = assay: Cytotoxicity MTT assay, HePG2; format: cell-based, human; design: unit not given here
Protocol: as §1, §2

Jurkat = format: cell-based, human; design: minimum inhibitory concentration (MIC) Jurkat: unit not given here; details: for minimum inhibitory concentration (MIC) Jurkat: MTT assay
Protocol: as §1, §2

[2] = test system: B16 F0 melanoma xenograft; assay: B16 F0 melanoma xenograft model; format: in vivo, C57B6J mice; details: 75 mg/kg daily intra-peritoneal, twelve days
Protocol: In vivo efficacy of LI-51255 against melanoma growth was evaluated in B16 F0 melanoma xenograft model of C57B6J mice. C57B6J mice of 6 weeks age (body weight 18-22 g) were purchased from National Institute of Nutrition (NIN), Hyderabad (India). Animals study protocols were approved by Institutional Ethics Committee (IAEC). All the studies were performed in compliance with the Committee for the Purpose of Control and Supervision of Experiments on Animals (CPCSEA) guidelines and OECD guidelines. Animals were allowed free access to standard feed and provided charcoal filtered and UV exposed water ad libitum. The animals were maintained at a controlled temperature (24-26° C.), humidity (45-70%), and 12 h/12 h of light/dark cycle.
To induce the melanoma tumor formation, sub-confluent B16F0 cells were harvested by brief trypsinization and 1×10^6 cells were injected subcutaneously in 0.2 mL phosphate-buffered saline. Drug treatment was started after development of palpable tumors (3-5 days after implantation of the cells). Drugs were prepared in phosphate-buffered saline (10% DMSO, v/v) and either 75 mg/kg of DTIC or different doses of LI-51255 (10 or 20 mg/kg) was administered daily through intra-peritoneal route. Vehicle treated control animals received only 10% DMSO in phosphate buffered saline. After twelve days of treatment, the animals were sacrificed by CO2 inhalation and tumors were excised and weighed.

SMILES	% inhibition at 10 μg/ml (potato 5-lipoxygenase) [%]	% inhibition at 25 μg/ml (potato 5-lipoxygenase) [%]	Inhibition of cell proliferation B16 (IC50) (B16) [µg/mL]	Inhibition of cell proliferation MCF-7 (IC50) (MCF-7; Table 2) [µg/mL]	IC50 values MCF-7 (MCF-7; Table 4)	Inhibition of cell proliferation A375 (IC50) (A375) [µg/mL]	Inhibition of cell proliferation MDA-MB-231 (IC50) (MDA-MB-231; Table 2) [µg/mL]	Inhibition of cell proliferation A549 (IC50) (A549) [µg/mL]	minimum inhibitory concentration (MIC) PC3M (PC3M)	minimum inhibitory concentration (MIC) HePG2 (HePG2)	minimum inhibitory concentration (MIC) Jurkat (Jurkat)	also measured
C[C@]12C=CC(=O)C=C1CC[C@@H]1[C@@H]2[C@@H](O)C[C@@]2(C)[C@H]1CC[C@]2(O)C(=O)CO [prednisolone, reference compound]	–	–	–	–	–	–	–	–	–	–	–	inhibition of paw edema [1]: 16.8%
CC(=O)O[C@@H]1CC[C@@]2(C)C(CC[C@]3(C)C2C(=O)C=C2C4[C@@H](C)[C@H](C)CC[C@]4(C)CC[C@]23C)[C@@]1(C)C(=O)N(C)C (some centres unmarked) [Analog 31]	18.57	36.73	–	–	–	–	–	–	–	–	–	inhibition at 10 µg/mL (B16; Mus musculus, B16, 10 ug/ml): 10%; inhibition at 10 µg/mL (MDA-MB-231; Table 2, 10 ug/ml, read-out: Inhibition of cell proliferation MDA-MB-231, % at 10 ug/ml): 46%; inhibition at 10 µg/mL (MDA-MB-231; Table 4, 10 μg/ml, read-out: Percentage Inhibition of cell proliferation MDA-MB-231): 46%; inhibition at 10 µg/mL (A549; Homo sapiens, A549, 10 ug/ml): 17%
CC(=O)O[C@@H]1CC[C@@]2(C)C(CC[C@]3(C)C2C(=O)C=C2C4[C@@H](C)[C@H](C)CC[C@]4(C)CC[C@]23C)[C@@]1(C)C(=O)NCCCCCCCN (some centres unmarked) [Analog 35]	24.92	52.48	2.82	9.7	IC50 at 9.7 μg/ml	2.76	5.14	5.86	–	–	–	IC50 values MDA-MB-231 (MDA-MB-231; Table 4): IC50 at 5.14 μg/ml
C[C@@H]1CC[C@]2(C)CC[C@]3(C)C(=CC(=O)C4[C@@]5(C)CC[C@@H](O)[C@](C)(C(=O)N6CCOCC6)C5CC[C@]43C)C2[C@H]1C (some centres unmarked) [Analog 36]	17.83	34.40	2.44	8.7	IC50 at 8.7 μg/ml	2.75	3.4	4.78	–	–	–	IC50 values MDA-MB-231 (MDA-MB-231; Table 4): IC50 at 3.4 μg/ml
C[C@@H]1CC[C@]2(C)CC[C@]3(C)C(=CC(=O)C4[C@@]5(C)CC[C@@H](OC(=O)CN)[C@](C)(C(=O)O)C5CC[C@]43C)C2[C@H]1C (some centres unmarked) [Analog 10]	–	–	–	–	–	–	–	–	50	>150	50	IC50 (MCF-7; Homo sapiens, MCF7, Table 4): 26.9 µg/mL (≈ 51 µM); inhibition of paw edema [1]: 12%; IC50 (MDA-MB-231; Table 4): 19.5 µg/mL (≈ 36.9 µM)
C[C@H](N)C(=O)O[C@@H]1CC[C@@]2(C)C(CC[C@]3(C)C2C(=O)C=C2C4[C@@H](C)[C@H](C)CC[C@]4(C)CC[C@]23C)[C@@]1(C)C(=O)O (some centres unmarked) [Analog 11]	–	–	–	–	–	–	–	–	30	100-150	50	IC50 (MCF-7; Homo sapiens, MCF7, Table 4): 33.3 µg/mL (≈ 61.5 µM); IC50 (MDA-MB-231; Table 4): 28.9 µg/mL (≈ 53.4 µM)
CC(=O)O[C@@H]1CC[C@@]2(C)C(CC[C@]3(C)C2C(=O)C=C2C4[C@@H](C)[C@H](C)CC[C@]4(C)CC[C@]23C)[C@@]1(C)C(=O)NCCCCN (some centres unmarked) [Analog 34]	16.31	29.40	3.84	13.7	IC50 at 13.7 μg/ml	4.12	6.38	10.5	–	–	–	IC50 values MDA-MB-231 (MDA-MB-231; Table 4): IC50 at 6.38 μg/ml
CN(C)/N=N/c1[nH]cnc1C(N)=O [DTIC, Dacarbazine, reference compound]	–	–	–	–	–	–	–	–	–	–	–	% reduction of tumor burden (w.r.t control) [2]: 33.613%; Average weight of tumor [2]: 4.175 gm; % reduction of tumor burden (w.r.t control) ([2]; listed as Dacarbazine): 33.6%
CC(=O)O[C@@H]1CC[C@@]2(C)C(CC[C@]3(C)C2C(=O)C=C2C4[C@@H](C)[C@H](C)CC[C@]4(C)CC[C@]23C)[C@@]1(C)C(=O)NCCNC=O (some centres unmarked) [Analog 48]	22.78	54.18	4.35	12.5	–	3.53	4.98	6.83	–	–	–	Percentage Inhibition of cell proliferation MDA-MB-231 (MDA-MB-231; Table 4, 10 μg/ml): 8.8% at 10 μg/ml
CC(=O)O[C@@H]1CC[C@@]2(C)C(CC[C@]3(C)C2C(=O)C=C2C4[C@@H](C)[C@H](C)CC[C@]4(C)CC[C@]23C)[C@@]1(C)C(=O)NN (some centres unmarked) [Analog 20]	–	–	–	–	–	–	–	–	10	40	50	cytotoxicity against PC3M (PC3M): significantly more potent; inhibition at 10 µg/mL (MCF-7; Homo sapiens, MCF7, Table 4, 10 μg/ml, read-out: Percentage Inhibition of cell proliferation MCF-7): 44%
CC(=O)O[C@@H]1CC[C@@]2(C)C(CC[C@]3(C)C2C(=O)C=C2C4[C@@H](C)[C@H](C)CC[C@]4(C)CC[C@]23C)[C@@]1(C)C(=O)NCCCCCCN (some centres unmarked) [Analog 33]	24.66	52.98	9.1	–	–	–	–	–	–	–	–	Inhibition of cell proliferation MCF-7, % at 10 ug/ml (MCF-7; Table 2, 10 ug/ml): 36% at 10; Percentage Inhibition of cell proliferation MCF-7 (MCF-7; Table 4, 10 μg/ml): 36% at 10 μg/ml; Inhibition of cell proliferation A549, % at 10 ug/ml (A549; 10 ug/ml): 24% at 10
COc1cc(C(=O)O[C@@H]2CC[C@@]3(C)C(CC[C@]4(C)C3C(=O)C=C3C5[C@@H](C)[C@H](C)CC[C@]5(C)CC[C@]34C)[C@@]2(C)C(=O)O)cc(O)c1O (some centres unmarked) [Analog 3]	–	–	–	–	–	–	–	–	30	150	125	cytotoxicity against PC3M (PC3M): significantly more potent
CC(=O)OC1CC[C@@]2(C)C(CC[C@]3(C)C2C(=O)C=C2C4[C@@H](C)[C@H](C)CC[C@]4(C)CC[C@]23C)[C@@]1(C)C(N)=O (some centres unmarked) [Analog 19]	–	–	–	–	IC50 at 30.05 μg/ml	–	–	–	>150	>150	10	Percentage Inhibition of cell proliferation MDA-MB-231 (MDA-MB-231; Table 4, 10 μg/ml): 38.72% at 10 μg/ml; cytotoxicity against leukemia cells (Jurkat): highly potent selectively

From patent publication US8748598B2, “Analogs of 3-O-acetyl-11-keto-beta-boswellic acid” (Laila Nutraceuticals, priority 2004, dated 2014)
